Experimental data reported in publication PMC7354613 (Viruses, 2020).
Where two headings read alike, the source gives them in different places.

Key:
[1] = system: OM-10.1, U1, ACH-2, J-Lat 10.6 and J-Lat A2 cells; assay type: cell-based, HIV-1; conditions: read-out: EC50 HIV activation
total CD4+ T-cells = assay: CD4 and CD3 surface expression by flow cytometry; assay type: cell-based, human; conditions: 24 h, 0.5 µM PKCa, 0.3 µM HDACi, untreated about 97%
[2] = system: OM-10.1 cells latently infected with HIV-1; assay: HIV activation dose response, Gag p24 ELISA of supernatant, OM-10.1 cells; assay type: cell-based; conditions: Human immunodeficiency virus 1, 48 h, read-out: EC50 HIV activation OM-10.1
J-Lat 10.6 cells = assay: HIV reactivation, GFP expression by flow cytometry, J-Lat 10.6 cells; assay type: cell-based, HIV-1; conditions: for EC50: Human immunodeficiency virus 1, J-Lat 10.6, 48 h, read-out: EC50 HIV activation J-Lat 10.6; for GFP expression with respect to the PMA control set to 100: J-Lat 10.6, 48 h, 0.5 µM PKCa, 0.3 µM HDACi
[3] = Cytotoxicity, CellTiter-Blue, U1 cells; assay type: cell-based; conditions: human, 48 h treatment, mean ± SD, n = 3
[4] = system: ACH-2 cells latently infected with HIV-1; assay: HIV reactivation, Gag p24 ELISA of supernatant, ACH-2 cells; assay type: cell-based; conditions: Human immunodeficiency virus 1, ACH-2, 48 h, read-out: EC50 HIV activation ACH-2
[5] = Cytotoxicity, CellTiter-Blue, ACH-2 cells; assay type: cell-based; conditions: human; 48 h treatment; mean ± SD, n = 3
[6] = Cytotoxicity, CellTiter-Blue, J-Lat A2 cells; assay type: cell-based; conditions: human, 48 h treatment, mean ± SD, n = 3
[7] = Cytotoxicity, CellTiter-Blue, J-Lat 10.6 cells; assay type: cell-based; conditions: human, 48 h treatment, mean ± SD, n = 3
[8] = Cytotoxicity, CellTiter-Blue, OM-10.1 cells; assay type: cell-based; conditions: human, 48 h treatment, mean ± SD, n = 3
[9] = system: U1 cells latently infected with HIV-1; assay: HIV reactivation, Gag p24 ELISA of supernatant, U1 cells; assay type: cell-based; conditions: Human immunodeficiency virus 1, 48 h, read-out: EC50 HIV activation U1
J-Lat A2 cells = assay: HIV reactivation, GFP expression by flow cytometry, J-Lat A2 cells; assay type: cell-based, HIV-1; conditions: Human immunodeficiency virus 1, J-Lat A2, 48 h, read-out: EC50 HIV activation J-Lat A2
[10] = system: OM-10.1 cells latently infected with HIV-1; assay: Envelope gp120 expression by flow cytometry, OM-10.1 cells; assay type: cell-based; conditions: live cells
[11] = system: ACH-2 cells latently infected with HIV-1; assay: Envelope gp120 expression by flow cytometry, ACH-2 cells; assay type: cell-based; conditions: live cells
[12] = system: OM-10.1 cells latently infected with HIV-1; assay: HIV RNA by real-time qRT-PCR, OM-10.1 cells; assay type: cell-based; conditions: 48 h
[13] = system: OM-10.1 cells latently infected with HIV-1; assay: Gag p24 immunoblot with densitometry, OM-10.1 cells; assay type: cell-based; conditions: 48 h
[14] = Human immunodeficiency virus 1, range over all the cell lines tested, 48 h

Molecule | cells expressing CD4 (CD4 expression, R1) (total CD4+ T-cells) | EC50 [2] | EC50 (J-Lat 10.6 cells) | CC50 at 48 h [3] | EC50 [4] | CC50 at 48 h [6] | CC50 at 48 h [7] | EC50 [9] | EC50 (J-Lat A2 cells) | EC50 [1, 14] | GFP expression with respect to the PMA control set to 100 (J-Lat 10.6 cells) | CC50 [5] | CC50 [8] | further results
CC(C)C1C(=O)NC(CO)Cc2c[nH]c3cccc(c23)N1C (single isomer, unassigned; (-)) [(-)-Indolactam V] | 5.5% | 90 ± 20 nM | 200 ± 40 nM | > 8000 nM | 180 ± 30 nM | > 8000 nM | > 8000 nM | 120 ± 20 nM | 320 ± 50 nM |  |  |  |  | EC50 ([1]; Human immunodeficiency virus 1, 48 h): 90 to 320 nM; CC50 at 48 h [5]: > 8000 nM; CC50 at 48 h [8]: > 8000 nM
CC(C)[C@H](C(=O)Nc1ccc(C(=O)NO)cc1)c1ccccc1 [AR-42] |  | 530 ± 80 nM | 550 ± 20 nM | ~8000 nM | 240 ± 40 nM | 530 ± 50 nM | 450 ± 20 nM | 260 ± 100 nM | 440 ± 50 nM | 240 to 550 nM | 10.2% | 410 ± 10 nM |  | CC50 at 48 h ([8]; OM-10.1 cells): 400 ± 10 nM
O=C(/C=C/c1cccc(S(=O)(=O)Nc2ccccc2)c1)NO [Belinostat] |  | 880 ± 400 nM | 940 ± 30 nM | > 8000 nM | 440 ± 30 nM | 1400 ± 20 nM | 1400 ± 60 nM | 770 ± 10 nM | 940 ± 50 nM | 440 to 940 nM |  | 1100 ± 200 nM |  | CC50 at 48 h ([8]; OM-10.1 cells): 2700 ± 200 nM
CCN(CC)Cc1ccc2cc(COC(=O)Nc3ccc(C(=O)NO)cc3)ccc2c1 [Givinostat] |  | 450 ± 130 nM | 880 ± 40 nM | ~4000 nM | 320 ± 40 nM | 1200 ± 20 nM | 930 ± 40 nM | 630 ± 20 nM | 700 ± 50 nM |  | 2.9% | 630 ± 30 nM | 420 ± 10 nM | 
CN(C)Cc1c(C(=O)NCCOc2ccc(C(=O)NO)cc2)oc2ccccc12 [PCI-24781] |  | 350 ± 40 nM | 450 ± 20 nM | ~8000 nM | 370 ± 40 nM | 540 ± 30 nM | 400 ± 20 nM | 460 ± 30 nM | 380 ± 50 nM |  | 6.5% | 310 ± 20 nM | 400 ± 20 nM | 
CCCCCCCCCCCCCC(=O)O[C@@H]1[C@@H](C)[C@@]2(O)[C@@H](C=C(CO)C[C@]3(O)C(=O)C(C)=C[C@@H]23)[C@@H]2C(C)(C)[C@]12OC(C)=O [PMA, phorbol 12-myristate 13-acetate] |  |  |  |  |  |  |  |  |  |  |  |  |  | cells expressing gp120 ([10]; 24 h): 50%; cells expressing gp120 ([10]; 48 h): 24%; cells expressing gp120 ([11]; 24 h): 46%; cells expressing gp120 ([11]; 48 h): 43%; HIV-1 RNA expression, fold with respect to the untreated control ([12]; cell-associated RNA): about 10 fold
CC(=O)O[C@@]12C[C@@H](C)[C@@]3(O)[C@@H](C=C(CO)C[C@]4(O)C(=O)C(C)=C[C@@H]34)[C@@H]1C2(C)C [Prostratin] | about 53% | 410 ± 30 nM | 680 ± 10 nM | > 8000 nM | 310 ± 70 nM | > 8000 nM | > 8000 nM | 300 ± 30 nM | 870 ± 30 nM | 300 to 870 nM | 37% | > 8000 nM | > 8000 nM | 
CC(C)[C@H]1C(=O)N[C@H](CO)Cc2cc(NC(=O)/C=C/C=C/c3ccc(C(F)(F)F)cc3)ccc2N1C [TPPB] | 18% | 130 ± 10 nM | 510 ± 80 nM | > 8000 nM | 70 ± 10 nM | > 8000 nM | > 8000 nM | 210 ± 10 nM | 490 ± 30 nM |  |  | > 8000 nM | > 8000 nM | 
TNFα |  |  |  |  |  |  |  |  |  |  |  |  |  | cells expressing gp120 ([10]; 24 h): 70%; cells expressing gp120 ([10]; 48 h): 42%; cell-associated Gag p24, fold compared to treatment with PMA ([13]; immunoblot densitometry): 12–30 fold; extracellular p24, fold with respect to PMA-treated control ([13]; viral lysate immunoblot): 1.5 fold; HIV-1 RNA expression, fold with respect to the untreated control ([12]; cell-associated RNA): 300 fold; HIV-1 RNA expression, fold with respect to the PMA-treated control ([12]; cell-associated RNA, 0.5 µM PKCa, 0.3 µM HDACi): about 30 fold; extracellular viral RNA, fold with respect to PMA-treated control ([12]; culture supernatant): 1.5 fold
